Tests used:
Assay type in all cases: in vivo, mouse
[1] = system: Pex7 homozygous hypomorphic animals (Pex7^neo/neo); test: 2 week comparison of plasmalogen precursors: plasmalogen levels in plasma and liver (LC-MS)
Method: Pex7 homozygous hypomorphic animals (Pex7^neo/neo) were used as a model of rhizomelic chondrodysplasia punctata (RCDP). Mice were dosed with either PPI-1011 or PPI-1040 at equimolar concentrations of 100 mg/Kg and 89.7 mg/Kg respectively. PPI-1011 was formulated in Neobee M-5, at a concentration of 12.5 mg/mL and stored at −20° C. until the first treatment day after which point the remaining formulation was stored at 4° C. Oral gavage volumes were adjusted by mouse weight to ensure a 100 mg/kg dose. PPI-1040 was stored in a sealed ampoule in solution with dichloromethane under argon gas until immediately before use. At time of treatment the ampoule was opened and dichloromethane was evaporated off under nitrogen gas for 10 minutes. Neobee M-5 was then added and the solution and vortexed to generate a 22.4 mg/mL formulation. Animals were dosed via intraperitoneal injections with doses adjusted by weight to ensure an 89.7 mg/Kg dose to each animal. Animals were sacrificed 24 hours after the ninth treatment (week 1-Monday to Friday and week 2-Monday to Thursday). Blood samples were collected in EDTA tubes and then spun down in a clinical centrifuge. Plasma samples were stored at −80° C. until thawed for analysis. Tissue samples were harvested and flash frozen in liquid nitrogen and then stored at −80° C. All tissue samples were homogenized using liquid nitrogen, generating a fine powder.
Plasma aliquots of 20 μL were analyzed, while tissues were aliquoted with anti-static polypropylene disposable milligram scoops prior to analysis. Water (200 μL) was added and samples were ice bath sonicated for 30 mins prior to the addition of 600 μL of ethyl acetate. Samples were mixed at 2000 rpm for 15 mins followed by a 10 min centrifugation at 3500 rpm. Tissue samples were diluted into an ethyl acetate (1:4) containing labeled internal standards [^13C-PlsEtn (C37^13C6H74NO7P) and ^13C-PtdEtn (C24^13C19H74NO8P)]. Water (80 μL) was added and samples were again stirred at 2000 rpm for 15 mins followed by a 2 min centrifugation at 3500 rpm. High-throughput analysis method was based on multiple reaction monitoring of one parent/fragment transition for the ion pairs, performed using liquid chromatography-mass spectrometry.

[2] = Oral bioavailability study with 13C-labeled PPI-1050: labeled glycerolipids in serum; conditions: wild-type C57Bl/6 mice
Method: A ^13C-labeled version of PPI-1040, called PPI-1050, was generated to evaluate the ability of the intact compound to cross the gut boundary and enter the bloodstream intact. PPI-1050 contains carbon-13 labels on the three glycerol carbons and 3 carbons of the sn-1 palmitic acid. Wild-type C57/Bl6 mice were treated with a single oral dose of 100 mg/kg PPI-1050 (formulated in Neobee-M5 with 0.1% thioglycerol) or vehicle. Animals were then sacrificed and blood harvested by cardiac puncture at 1, 3 and 6 hours post-treatment (n=3). Serum was then analyzed for presence of incorporation of the label into glycerolipids. Serum extraction was performed on 20 μL aliquots in 1.4 ml Thermo matrix tubes. […] A 100 μL aliquot of the ethyl acetate layer was analyzed using FI-MS/MS on a API4000™ mass spectrometer (Applied Biosystems) coupled with Agilent 1100 HPLC pump and auto sampler. […] The parent PlsEtn mass was determined by incorporating the intact number of 13C labels in the predicted parent together with the corresponding daughter ion (sn2 fatty acid loss) to obtain the quantitative MS/MS transition pair. To confirm the ethanolamine group remained intact upon absorption we also analyzed serum for the presence of labeled alkyl-acyl and vinyl-acyl glycerols using FI-MS/MS analysis in positive mode. All transitions measured can be found in Table 1 below. […]

Pex7 hypomorph/null mice = test: Open field test after 4 weeks oral treatment
Source text: The Pex7 hypomorph/null model is a hypomorphic (B6;129S6-Pex7^tm2.3Brav/s9) mouse model on a mixed background (C57BL/6NCrl and 129S6/SvEvTac). The hypomorphic allele in Pex7 hypomorph/null was generated by inserting an inverse neo cassette into intron 2 and lox P sites surrounding exon 3. The Pex7 null allele was generated using (B6.C-Tg(cmv-cre)1Cgn/J) mouse. The Pex7 hypomorph/null mouse model has 90% survival, 0.016-0.257% of wild type Pex7 mRNA levels and 20-30% plasmalogen levels Pex7 hypomoprh/null mice (3-4 months); and wild-type animals, males and females included in treatments and behavioral tests. Pex7 hypomorph/null mice were randomly assigned, after a baseline open field test, into 3 treatment groups: PPI-1040, PPI-1011, and vehicle controls, n=6 mice per group). PPI-1011 or PPI-1040 at 50 mg/kg was given by oral gavage 5 days per week (Monday-Friday) for 4 weeks. During the treatment period, animals were weighed weekly and observed for signs of distress. The open field test was performed at the end of treatment. To avoid selection bias, data analysis was performed only at the study end. Animals were sacrificed after a 24-hour post the last dose.
The open field test is a behavioral test used to evaluate the general locomotor activity, exploratory and anxiety-like behaviour of mice in response to a novel environment. The animal is placed inside a custom made square, gray acrylic box measuring 40×40×40 cm and allowed to move freely for 5 minutes while being recorded by an overhead camera (camera model). The footage was analyzed by an automated tracking system (Any-maze Video Tracking Software, Stoelting Co, Wood Dale, Ill., USA), for total distance traveled (meters) & activity (mobility in seconds) time. The total distance traveled is the total distance that animal traveled during the test and the activity measures the amount of time the animal was active during the test.

[3] = 89.7 mg/Kg intraperitoneal, 2 weeks
[4] = PPI-1011 100 mg/Kg oral or PPI-1040 89.7 mg/Kg intraperitoneal, 2 weeks
[5] = 50 mg/kg oral gavage, 5 days per week, 5 minutes test

CC/C=C\C/C=C\C/C=C\C/C=C\C/C=C\C/C=C\CCC(=O)OC(CO/C=C\CCCCCCCCCCCCCC)COP1(=O)NCCO1 (stereo not shown) [PPI-1040, 1-(((Z)-hexadec-1-en-1-yl)oxy)-3-((2-oxido-1,3,2-oxazaphospholidin-2-yl)oxy)propan-2-yl (4Z,7Z,10Z,13Z,16Z,19Z)-docosa-4,7,10,13,16,19-hexaenoate]
bioavailability and conversion to endogenous ethanolamine plasmalogen [1, 3]: bioavailable in the mouse | total 16:0 plasmalogen pool in plasma [1, 3]: augmented the total 16:0 plasmalogen to control levels | 16:0 plasmalogen pool in liver [1, 4]: augmented the 16:0 plasmalogen pool in the liver to control levels | target plasmalogen (16:0/22:6) levels in liver [1, 4]: to levels above control | levels of the target plasmalogen (16:0/22:6) in the plasma ([1]; PPI-1040 89.7 mg/Kg intraperitoneal, 2 weeks (9 treatments)): 2 × above control | oral bioavailability ([2]; single oral dose 100 mg/kg PPI-1050): orally bioavailable and crossed the gut lining intact | intact compound with closed phosphoethanolamine ring in serum ([2]; single oral dose 100 mg/kg PPI-1050, 1, 3, 6 hours): not detectable in any samples | open field: time active (Pex7 hypomorph/null mice; [5]): significant decrease in activity and normalization of the hyperactive phenotype | open field: total distance traveled (Pex7 hypomorph/null mice; [5]): significant decrease in activity and normalization of the hyperactive phenotype | hyperactivity phenotype (Pex7 hypomorph/null mice; 50 mg/kg oral, p<0.05): significant improvement
